Measured values: ChEMBL document CHEMBL1140961, “Synthesis and biological activity of some new benzoxazoles” (2008)
Values after ≈ are worked out from the molar mass of the structure shown.

Legend:
Assay type in all cases: functional
Pseudomonas aeruginosa = assay: Antimicrobial activity against Pseudomonas aeruginosa ATCC […] after 24 hrs by disk diffusion method
Bacillus subtilis [1] = assay: Antimicrobial activity against Bacillus subtilis ATCC 6633 after 24 hrs by disk diffusion method
Staphylococcus aureus [2] = assay: Antimicrobial activity against Staphylococcus aureus isolate after 24 hrs by disk diffusion method
Candida albicans [3] = assay: Antimicrobial activity against Candida albicans isolate after 24 to 48 hrs after 24 hrs by disk diffusion method
Bacillus subtilis [4] = assay: Antimicrobial activity against Bacillus subtilis isolate after 24 hrs by disk diffusion method
Escherichia coli [5] = assay: Antimicrobial activity against Escherichia coli ATCC 25922 after 24 hrs by disk diffusion method
Staphylococcus aureus [6] = assay: Antimicrobial activity against Staphylococcus aureus ATCC 25923 after 24 hrs by disk diffusion method
Klebsiella pneumoniae [7] = assay: Antimicrobial activity against Klebsiella pneumoniae RSHM 574 after 24 hrs by disk diffusion method
Candida albicans [8] = assay: Antimicrobial activity against Candida albicans ATCC 10231 after 24 to 48 hrs after 24 hrs by disk diffusion method
Escherichia coli [9] = assay: Antimicrobial activity against Escherichia coli isolate after 24 hrs by disk diffusion method
Klebsiella pneumoniae [10] = assay: Antimicrobial activity against Klebsiella pneumoniae after 24 hrs by disk diffusion method

Molecule | MIC (Pseudomonas aeruginosa; ATCC 25853, 24 h) [µg/mL] | MIC (Bacillus subtilis [1]; ATCC 6633, 24 h) [µg/mL] | MIC (Staphylococcus aureus [2]) [µg/mL] | MIC (Candida albicans [3]) [µg/mL] | MIC (Bacillus subtilis [4]) [µg/mL] | MIC (Escherichia coli [5]; ATCC 25922, 24 h) [µg/mL] | MIC (Staphylococcus aureus [6]; ATCC 25923, 24 h) [µg/mL] | MIC (Klebsiella pneumoniae [7]) [µg/mL] | MIC (Candida albicans [8]) [µg/mL] | MIC (Escherichia coli [9]) [µg/mL] | MIC (Klebsiella pneumoniae [10]) [µg/mL] | MIC (Pseudomonas aeruginosa) [µg/mL] | MIC (Bacillus subtilis [1]) [µg/mL] | MIC (Escherichia coli [5]) [µg/mL] | MIC (Staphylococcus aureus [6]) [µg/mL]
CCS(=O)(=O)c1ccc2oc(-c3ccccc3)nc2c1 | 62.5 (≈ 218 µM) | 62.5 (≈ 218 µM) | 125 (≈ 435 µM) | 31.2 (≈ 109 µM) | 31.2 (≈ 109 µM) | 62.5 (≈ 218 µM) | 125 (≈ 435 µM) | 125 (≈ 435 µM) | 125 (≈ 435 µM) | 62.5 (≈ 218 µM) | 125 (≈ 435 µM) |  |  |  | 
CCS(=O)(=O)c1ccc2oc(-c3ccc(C)cc3)nc2c1 | 62.5 (≈ 207 µM) | 31.2 (≈ 104 µM) | 125 (≈ 415 µM) | 31.2 (≈ 104 µM) | 31.2 (≈ 104 µM) | 62.5 (≈ 207 µM) | 125 (≈ 415 µM) | 62.5 (≈ 207 µM) | 125 (≈ 415 µM) | 62.5 (≈ 207 µM) | 31.2 (≈ 104 µM) |  |  |  | 
CC1COc2c(N3CCN(C)CC3)c(F)cc3c(=O)c(C(=O)O)cn1c23 (stereo not given) [OFLOXACIN] | 8 (≈ 22.1 µM) | 0.125 (≈ 0.346 µM) | 2 (≈ 5.53 µM) |  | 32 (≈ 88.6 µM) | 0.125 (≈ 0.346 µM) | 0.25 (≈ 0.692 µM) | 0.25 (≈ 0.692 µM) |  | 32 (≈ 88.6 µM) | 64 (≈ 177 µM) |  |  |  | 
CCS(=O)(=O)c1ccc2oc(Cc3ccccc3Cl)nc2c1 | 62.5 (≈ 186 µM) | 62.5 (≈ 186 µM) | 125 (≈ 372 µM) | 62.5 (≈ 186 µM) | 31.2 (≈ 93.1 µM) | 62.5 (≈ 186 µM) | 125 (≈ 372 µM) | 31.2 (≈ 93.1 µM) | 62.5 (≈ 186 µM) | 125 (≈ 372 µM) | 125 (≈ 372 µM) |  |  |  | 
OC(Cn1cncn1)(Cn1cncn1)c1ccc(F)cc1F [FLUCONAZOLE] |  |  |  | 64 (≈ 209 µM) |  |  |  |  | 1 (≈ 3.27 µM) |  |  |  |  |  | 
CCS(=O)(=O)c1ccc2oc(-c3ccc(Cl)cc3)nc2c1 | 62.5 (≈ 194 µM) | 7.81 (≈ 24.3 µM) | 125 (≈ 388 µM) | 15.6 (≈ 48.5 µM) | 31.2 (≈ 97.1 µM) | 62.5 (≈ 194 µM) | 125 (≈ 388 µM) | 62.5 (≈ 194 µM) | 125 (≈ 388 µM) | 62.5 (≈ 194 µM) | 125 (≈ 388 µM) |  |  |  | 
CCS(=O)(=O)c1ccc2oc(-c3cc(Br)ccc3Cl)nc2c1 | 62.5 (≈ 156 µM) | 62.5 (≈ 156 µM) | 125 (≈ 312 µM) | 62.5 (≈ 156 µM) | 31.2 (≈ 78 µM) | 62.5 (≈ 156 µM) | 125 (≈ 312 µM) | 62.5 (≈ 156 µM) | 62.5 (≈ 156 µM) | 125 (≈ 312 µM) | 125 (≈ 312 µM) |  |  |  | 
CCS(=O)(=O)c1ccc2oc(-c3ccccc3Cl)nc2c1 | 62.5 (≈ 194 µM) | 15.6 (≈ 48.5 µM) | 125 (≈ 388 µM) | 62.5 (≈ 194 µM) | 31.2 (≈ 97.1 µM) | 62.5 (≈ 194 µM) | 125 (≈ 388 µM) | 31.2 (≈ 97.1 µM) | 31.2 (≈ 97.1 µM) | 125 (≈ 388 µM) | 125 (≈ 388 µM) |  |  |  | 
CCS(=O)(=O)c1ccc2oc(CCc3ccccc3)nc2c1 | 62.5 (≈ 198 µM) | 62.5 (≈ 198 µM) | 125 (≈ 396 µM) | 62.5 (≈ 198 µM) | 31.2 (≈ 99.1 µM) | 62.5 (≈ 198 µM) | 125 (≈ 396 µM) | 31.2 (≈ 99.1 µM) | 62.5 (≈ 198 µM) | 125 (≈ 396 µM) | 125 (≈ 396 µM) |  |  |  | 
CCS(=O)(=O)c1ccc2oc(-c3ccc(C(C)(C)C)cc3)nc2c1 | 62.5 (≈ 182 µM) | 7.81 (≈ 22.7 µM) | 125 (≈ 364 µM) | 31.2 (≈ 91 µM) | 15.6 (≈ 45.5 µM) | 62.5 (≈ 182 µM) | 125 (≈ 364 µM) | 62.5 (≈ 182 µM) | 125 (≈ 364 µM) | 62.5 (≈ 182 µM) | 250 (≈ 728 µM) |  |  |  | 
CCS(=O)(=O)c1ccc2oc(-c3ccc([N+](=O)[O-])cc3)nc2c1 | 62.5 (≈ 188 µM) | 31.2 (≈ 94 µM) | 125 (≈ 376 µM) | 62.5 (≈ 188 µM) | 15.6 (≈ 47 µM) | 62.5 (≈ 188 µM) | 125 (≈ 376 µM) | 125 (≈ 376 µM) | 125 (≈ 376 µM) | 62.5 (≈ 188 µM) | 125 (≈ 376 µM) |  |  |  | 
CCS(=O)(=O)c1ccc2oc(Cc3ccc(C)cc3)nc2c1 | 62.5 (≈ 198 µM) | 31.2 (≈ 99.1 µM) | 125 (≈ 396 µM) | 62.5 (≈ 198 µM) | 31.2 (≈ 99.1 µM) | 62.5 (≈ 198 µM) | 125 (≈ 396 µM) | 62.5 (≈ 198 µM) | 62.5 (≈ 198 µM) | 125 (≈ 396 µM) | 125 (≈ 396 µM) |  |  |  | 
CCS(=O)(=O)c1ccc2oc(-c3cccc(C)c3C)nc2c1 | 62.5 (≈ 198 µM) | 15.6 (≈ 49.5 µM) | 125 (≈ 396 µM) | 62.5 (≈ 198 µM) | 31.2 (≈ 99.1 µM) | 62.5 (≈ 198 µM) | 125 (≈ 396 µM) | 31.2 (≈ 99.1 µM) | 31.2 (≈ 99.1 µM) | 250 (≈ 793 µM) | 125 (≈ 396 µM) |  |  |  | 
GENTAMICIN SULFATE |  |  | 1020 |  | 512 |  |  | 8 |  | 1 | 64 | 2 | 1 | 0.5 | 0.06
CCS(=O)(=O)c1ccc2oc(-c3ccc(F)cc3)nc2c1 | 62.5 (≈ 205 µM) | 31.2 (≈ 102 µM) | 125 (≈ 409 µM) | 31.2 (≈ 102 µM) | 31.2 (≈ 102 µM) | 62.5 (≈ 205 µM) | 125 (≈ 409 µM) | 31.2 (≈ 102 µM) | 125 (≈ 409 µM) | 62.5 (≈ 205 µM) | 125 (≈ 409 µM) |  |  |  | 
CCS(=O)(=O)c1ccc2oc(Cc3ccc(F)cc3)nc2c1 | 62.5 (≈ 196 µM) | 62.5 (≈ 196 µM) | 125 (≈ 391 µM) | 31.2 (≈ 97.9 µM) | 31.2 (≈ 97.9 µM) | 62.5 (≈ 196 µM) | 125 (≈ 391 µM) | 31.2 (≈ 97.9 µM) | 62.5 (≈ 196 µM) | 125 (≈ 391 µM) | 125 (≈ 391 µM) |  |  |  | 
CCS(=O)(=O)c1ccc2oc(-c3ccccc3F)nc2c1 | 62.5 (≈ 205 µM) | 62.5 (≈ 205 µM) | 125 (≈ 409 µM) | 62.5 (≈ 205 µM) | 31.2 (≈ 102 µM) | 62.5 (≈ 205 µM) | 125 (≈ 409 µM) | 31.2 (≈ 102 µM) | 62.5 (≈ 205 µM) | 250 (≈ 819 µM) | 125 (≈ 409 µM) |  |  |  | 
CC1(C)S[C@@H]2[C@H](NC(=O)[C@H](N)c3ccccc3)C(=O)N2[C@H]1C(=O)O.O.O.O [AMPICILLIN TRIHYDRATE] | 4100 | 0.25 | 2 |  | 8 | 8 | 0.03 | 2 |  | 256 | 256 |  |  |  | 
CCS(=O)(=O)c1ccc2oc(-c3ccccc3Br)nc2c1 | 62.5 (≈ 171 µM) | 15.6 (≈ 42.7 µM) | 125 (≈ 341 µM) | 62.5 (≈ 171 µM) | 31.2 (≈ 85.3 µM) | 62.5 (≈ 171 µM) | 125 (≈ 341 µM) | 31.2 (≈ 85.3 µM) | 62.5 (≈ 171 µM) | 250 (≈ 683 µM) | 125 (≈ 341 µM) |  |  |  | 
CCS(=O)(=O)c1ccc2oc(Cc3ccc(Br)cc3)nc2c1 | 62.5 (≈ 164 µM) | 62.5 (≈ 164 µM) | 125 (≈ 329 µM) | 62.5 (≈ 164 µM) | 15.6 (≈ 41.1 µM) | 62.5 (≈ 164 µM) | 125 (≈ 329 µM) | 62.5 (≈ 164 µM) | 62.5 (≈ 164 µM) | 125 (≈ 329 µM) | 125 (≈ 329 µM) |  |  |  | 
CCS(=O)(=O)c1ccc2oc(Cc3ccc(Cl)cc3)nc2c1 | 62.5 (≈ 186 µM) | 31.2 (≈ 93.1 µM) | 125 (≈ 372 µM) | 62.5 (≈ 186 µM) | 15.6 (≈ 46.5 µM) | 62.5 (≈ 186 µM) | 125 (≈ 372 µM) | 62.5 (≈ 186 µM) | 31.2 (≈ 93.1 µM) | 125 (≈ 372 µM) | 125 (≈ 372 µM) |  |  |  | 
C[C@@H]1[C@H](O)[C@@H](C)/C=C/C=C/C=C/C=C/C=C/C=C/C=C/[C@H](O[C@@H]2O[C@H](C)[C@@H](O)[C@H](N)[C@@H]2O)C[C@@H]2O[C@](O)(C[C@@H](O)C[C@@H](O)[C@H](O)CC[C@@H](O)C[C@@H](O)CC(=O)O[C@H]1C)C[C@H](O)[C@H]2C(=O)O [AMPHOTERICIN B] |  |  |  | 1 (≈ 1.08 µM) |  |  |  |  | 1 (≈ 1.08 µM) |  |  |  |  |  | 
CCc1ccc(-c2nc3cc(S(=O)(=O)CC)ccc3o2)cc1 | 62.5 (≈ 198 µM) | 31.2 (≈ 99.1 µM) | 125 (≈ 396 µM) | 15.6 (≈ 49.5 µM) | 31.2 (≈ 99.1 µM) | 62.5 (≈ 198 µM) | 125 (≈ 396 µM) | 62.5 (≈ 198 µM) | 125 (≈ 396 µM) | 62.5 (≈ 198 µM) | 125 (≈ 396 µM) |  |  |  | 
CCS(=O)(=O)c1ccc2oc(-c3ccc(Br)cc3)nc2c1 | 62.5 (≈ 171 µM) | 15.6 (≈ 42.7 µM) | 125 (≈ 341 µM) | 31.2 (≈ 85.3 µM) | 31.2 (≈ 85.3 µM) | 62.5 (≈ 171 µM) | 125 (≈ 341 µM) | 62.5 (≈ 171 µM) | 125 (≈ 341 µM) | 62.5 (≈ 171 µM) | 125 (≈ 341 µM) |  |  |  | 
